Reference: patent US20230113037A1 (Bayer Aktiengesellschaft, priority 2019, published 2023)
Read-outs that look alike come from different tables or passages of the source.

Experiments:
AHR [1] = target: T1, AHR (Homo sapiens, UniProt P35869); test: In vitro assay 1: antagonism in human cell line (AHR transactivation, firefly luciferase reporter, kynurenic acid prestimulated); format: cell-based; conditions: AHR Antagonism Human IC50 [M]
T1 construct: U87 MG glioblastoma cells (ATCC #HTB-14) endogenously expressing AHR; endogenous in cells; host or cells: U87 MG glioblastoma cells (ATCC #HTB-14)
T1 sequence (P35869 11-848): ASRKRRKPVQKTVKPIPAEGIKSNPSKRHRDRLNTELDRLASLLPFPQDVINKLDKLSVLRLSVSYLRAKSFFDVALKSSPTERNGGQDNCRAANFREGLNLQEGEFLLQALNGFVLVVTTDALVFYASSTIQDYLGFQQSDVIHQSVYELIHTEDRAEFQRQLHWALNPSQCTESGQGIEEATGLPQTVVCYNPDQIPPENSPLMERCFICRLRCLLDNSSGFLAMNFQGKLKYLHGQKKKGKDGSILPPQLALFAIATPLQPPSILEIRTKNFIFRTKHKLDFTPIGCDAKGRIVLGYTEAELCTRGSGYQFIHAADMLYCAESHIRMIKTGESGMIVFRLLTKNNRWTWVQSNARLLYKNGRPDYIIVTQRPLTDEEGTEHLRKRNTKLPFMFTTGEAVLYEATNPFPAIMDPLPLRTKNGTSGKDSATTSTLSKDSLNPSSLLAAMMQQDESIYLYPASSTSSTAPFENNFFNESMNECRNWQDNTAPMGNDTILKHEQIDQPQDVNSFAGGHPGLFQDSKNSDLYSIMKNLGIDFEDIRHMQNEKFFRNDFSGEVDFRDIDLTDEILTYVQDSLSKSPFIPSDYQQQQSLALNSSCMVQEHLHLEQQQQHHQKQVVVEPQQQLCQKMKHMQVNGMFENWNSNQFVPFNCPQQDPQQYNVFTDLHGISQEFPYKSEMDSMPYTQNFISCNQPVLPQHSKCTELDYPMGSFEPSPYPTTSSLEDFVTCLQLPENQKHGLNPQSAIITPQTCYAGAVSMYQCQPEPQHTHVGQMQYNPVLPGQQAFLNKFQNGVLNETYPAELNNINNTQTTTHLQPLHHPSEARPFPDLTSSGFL
Method in brief: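 U87 MG + DRE-firefly/constitutive-Renilla stable reporters; kynurenic acid prestim; dual-luc read; Renilla = tox; normalized vs pos/neg controls (pos: 150 μM KYNA + 5 μM staurosporine).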

AHR [2] = target: T2, AHR (Mus musculus, UniProt P30561); test: In vitro assay 3: antagonism in mouse cell line (AHR transactivation, firefly luciferase reporter, kynurenic acid prestimulated); format: cell-based
T2 sequence (P30561 1-848 P471L/N533S/M589L): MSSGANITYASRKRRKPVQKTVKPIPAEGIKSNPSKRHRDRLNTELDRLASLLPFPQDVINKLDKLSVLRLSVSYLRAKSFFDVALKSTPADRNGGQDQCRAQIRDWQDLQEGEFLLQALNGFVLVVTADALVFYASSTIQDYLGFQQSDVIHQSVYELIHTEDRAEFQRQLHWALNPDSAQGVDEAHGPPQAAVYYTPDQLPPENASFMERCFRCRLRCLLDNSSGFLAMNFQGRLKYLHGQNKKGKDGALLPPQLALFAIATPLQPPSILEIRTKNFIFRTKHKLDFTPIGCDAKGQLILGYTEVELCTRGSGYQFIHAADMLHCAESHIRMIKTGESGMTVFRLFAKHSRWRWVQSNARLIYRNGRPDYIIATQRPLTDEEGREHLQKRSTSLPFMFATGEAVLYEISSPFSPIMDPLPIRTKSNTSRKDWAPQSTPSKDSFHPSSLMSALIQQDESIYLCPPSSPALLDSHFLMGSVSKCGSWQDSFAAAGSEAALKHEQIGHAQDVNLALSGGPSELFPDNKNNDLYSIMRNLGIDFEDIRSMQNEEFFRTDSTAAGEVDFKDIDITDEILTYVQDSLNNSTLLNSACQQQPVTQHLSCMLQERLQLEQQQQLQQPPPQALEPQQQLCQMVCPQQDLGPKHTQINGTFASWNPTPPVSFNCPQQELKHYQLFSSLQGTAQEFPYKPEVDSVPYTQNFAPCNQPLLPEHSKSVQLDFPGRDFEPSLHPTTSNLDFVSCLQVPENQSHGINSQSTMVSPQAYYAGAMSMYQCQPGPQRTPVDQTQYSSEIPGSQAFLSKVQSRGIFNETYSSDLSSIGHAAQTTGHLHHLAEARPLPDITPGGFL
Method in brief: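 Mouse cells stably carrying a DRE-driven, AHR-inducible firefly luciferase reporter were prestimulated with the endogenous agonist kynurenic acid before compound addition. Luciferase activity was measured by luminescence and normalized to positive and negative controls, with cells lacking kynurenic acid serving as full-inhibition control. Repeat tests are reported as mean or median.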

[3] = mouse Hepa 1c1c7 cells, 200 μM kynurenic acid, 20 hours, read-out: AHR Antagonism Mouse IC50

| IC50 (AHR [1]) [M] | IC50 (AHR [2]; [3]) [nM] | SMILES | IC50 (AHR [2]; read-out: AHR Antagonism Mouse IC50, mouse Hepa 1c1c7 cells, 200 μM kynurenic acid, 20 hours) [nM] |
| --- | --- | --- | --- |
| 1.64e-08 | 9.97 | O=C1NCCCC[C@H]1Nc1nc2ccccc2c2nc(-c3ccncc3F)nn12 [Example 369, (3R)-3-{[2-(3-fluoropyridin-4-yl)[1,2,4]triazolo[1,5-c]quinazolin-5-yl]amino}azepan-2-one] |  |
| 5.45e-08 | 6.38 | O=C1NCCCC[C@H]1Nc1nc2ccccc2c2nc(-c3cccc(C(F)(F)F)n3)nn12 [Example 370, (3R)-3-({2-[6-(trifluoromethyl)pyridin-2-yl][1,2,4]triazolo[1,5-c]quinazolin-5-yl}amino)azepan-2-one] |  |
| 7.24e-08 | 14.6 | CC[C@@H](Nc1nc2ccccc2c2nc(-c3cccc(C(F)(F)F)n3)nn12)C(N)=O [Example 371, (2R)-2-({2-[6-(trifluoromethyl)pyridin-2-yl][1,2,4]triazolo[1,5-c]quinazolin-5-yl}amino)butanamide] |  |
| 8.65e-09 | 1.73 | CS(=O)(=O)c1ccc(-c2nc3c4ccccc4nc(N[C@@H]4CCCCNC4=O)n3n2)cc1 [Example 372, (3R)-3-({2-[4-(methanesulfonyl)phenyl][1,2,4]triazolo[1,5-c]quinazolin-5-yl}amino)azepan-2-one] |  |
| 6.38e-07 | 514 | CS(=O)(=O)c1ccc(-c2nc3c4ccccc4nc(N[C@@H]4CCNC4=O)n3n2)cc1 [Example 373, (3R)-3-({2-[4-(methanesulfonyl)phenyl][1,2,4]triazolo[1,5-c]quinazolin-5-yl}amino)pyrrolidin-2-one] |  |
| 4.49e-07 | 211 | CS(=O)(=O)c1ccc(-c2nc3c4ccccc4nc(N[C@@H]4CCCNC4=O)n3n2)cc1 [Example 374, (3R)-3-({2-[4-(methanesulfonyl)phenyl][1,2,4]triazolo[1,5-c]quinazolin-5-yl}amino)piperidin-2-one] |  |
| 7.95e-07 | 30.6 | CS(=O)(=O)c1ccc(-c2nc3c4ccccc4nc(N[C@H]4CCCCNC4=O)n3n2)cc1 [Example 375, (3S)-3-({2-[4-(methanesulfonyl)phenyl][1,2,4]triazolo[1,5-c]quinazolin-5-yl}amino)azepan-2-one] |  |
| 1.61e-08 | 4.93 | CC[C@@H](Nc1nc2ccccc2c2nc(-c3ccc(S(C)(=O)=O)cc3)nn12)C(N)=O [Example 376, (2R)-2-({2-[4-(methanesulfonyl)phenyl][1,2,4]triazolo[1,5-c]quinazolin-5-yl}amino)butanamide] |  |
| 3.28e-08 | 12.4 | CCC[C@@H](Nc1nc2ccccc2c2nc(-c3ccc(S(C)(=O)=O)cc3)nn12)C(=O)NC [Example 377, N^2-{2-[4-(methanesulfonyl)phenyl][1,2,4]triazolo[1,5-c]quinazolin-5-yl}-N-methyl-D-norvalinamide] |  |
| 6.25e-07 | 171 | CC[C@@H](Nc1nc2ccccc2c2nc(-c3cccc(S(C)(=O)=O)c3)nn12)C(N)=O [Example 378, (2R)-2-({2-[3-(methanesulfonyl)phenyl][1,2,4]triazolo[1,5-c]quinazolin-5-yl}amino)butanamide] |  |
| 7.6e-10 | 0.993 | CC[C@@H](Nc1nc2ccccc2c2nc(-c3ccc(OC)cc3)nn12)C(N)=O [Example 379, (2R)-2-{[2-(4-methoxyphenyl)[1,2,4]triazolo[1,5-c]quinazolin-5-yl]amino}butanamide] |  |
| 1.02e-08 | 1.51 | N#Cc1cccc(-c2nc3c4ccccc4nc(N[C@@H]4CCCCNC4=O)n3n2)c1 [Example 381, 3-(5-{[(3R)-2-oxoazepan-3-yl]amino}[1,2,4]triazolo[1,5-c]quinazolin-2-yl)benzonitrile] |  |
| 7.64e-09 | 1.25 | CC[C@@H](Nc1nc2ccccc2c2nc(-c3cccc(C#N)c3)nn12)C(N)=O [Example 382, (2R)-2-{[2-(3-cyanophenyl)[1,2,4]triazolo[1,5-c]quinazolin-5-yl]amino}butanamide] |  |
| 1.39e-07 | 388 | N#Cc1cccc(-c2nc3c4ccccc4nc(N[C@@H]4CCNC4=O)n3n2)c1 [Example 383, 3-(5-{[(3R)-2-oxopyrrolidin-3-yl]amino}[1,2,4]triazolo[1,5-c]quinazolin-2-yl)benzonitrile] |  |
| 2.73e-07 | 72.2 | N#Cc1cccc(-c2nc3c4ccccc4nc(N[C@@H]4CCCNC4=O)n3n2)c1 [Example 384, 3-(5-{[(3R)-2-oxopiperidin-3-yl]amino}[1,2,4]triazolo[1,5-c]quinazolin-2-yl)benzonitrile] |  |
| 1.97e-06 | 146 | N#Cc1cccc(-c2nc3c4ccccc4nc(N[C@H]4CCCCNC4=O)n3n2)c1 [Example 385, 3-(5-{[(3S)-2-oxoazepan-3-yl]amino}[1,2,4]triazolo[1,5-c]quinazolin-2-yl)benzonitrile] |  |
| 6.02e-10 | 0.346 | CC[C@@H](Nc1nc2ccccc2c2nc(-c3ccc(C#N)cc3)nn12)C(N)=O [Example 386, (2R)-2-{[2-(4-cyanophenyl)[1,2,4]triazolo[1,5-c]quinazolin-5-yl]amino}butanamide] |  |
| 7.93e-10 | 0.398 | N#Cc1ccc(-c2nc3c4ccccc4nc(N[C@@H]4CCCCNC4=O)n3n2)cc1 [Example 387, 4-(5-{[(3R)-2-oxoazepan-3-yl]amino}[1,2,4]triazolo[1,5-c]quinazolin-2-yl)benzonitrile] |  |
| 1.76e-08 | 26.7 | N#Cc1ccc(-c2nc3c4ccccc4nc(N[C@@H]4CCCNC4=O)n3n2)cc1 [Example 389, 4-(5-{[(3R)-2-oxopiperidin-3-yl]amino}[1,2,4]triazolo[1,5-c]quinazolin-2-yl)benzonitrile] |  |
| 1.38e-09 | 1.02 | O=C1NCCCC[C@H]1Nc1nc2ccccc2c2nc(-c3ccn4ccnc4c3)nn12 [Example 390, (3R)-3-{[2-(Imidazo[1,2-a]pyridin-7-yl)[1,2,4]triazolo[1,5-c]quinazolin-5-yl]amino}azepan-2-one] |  |
| 3.31e-08 | 46.1 | COc1ccc(-c2nc3c4ccccc4nc(N[C@H](C)C(=O)NC(C)C)n3n2)cc1 [Example 391, N^2-[2-(4-Methoxyphenyl)[1,2,4]triazolo[1,5-c]quinazolin-5-yl]-N-propan-2-yl-D-alaninamide] |  |
| 2.38e-07 | 31.5 | COc1ccc(-c2nc3c4cc(C(C)C)ccc4nc(N[C@@H]4CCCCNC4=O)n3n2)cc1 [Example 392, (3R)-3-{[2-(4-Methoxyphenyl)-9-(propan-2-yl)[1,2,4]triazolo[1,5-c]quinazolin-5-yl]amino}azepan-2-one] |  |

| SMILES | IC50 (AHR [1]) [M] | IC50 (AHR [2]; [3]) [nM] | IC50 (AHR [2]; read-out: AHR Antagonism Mouse IC50, mouse Hepa 1c1c7 cells, 200 μM kynurenic acid, 20 hours) [nM] |
| --- | --- | --- | --- |
| CC(C)c1cccc2c1nc(N[C@@H]1CCCCNC1=O)n1nc(-c3ccc(F)cc3)nc21 [Example 393, (3R)-3-{[2-(4-Fluorophenyl)-7-(propan-2-yl)[1,2,4]triazolo[1,5-c]quinazolin-5-yl]amino}azepan-2-one] | 4.34e-08 |  | 34.2 |
